Experiments:
C. elegans [1] = assay: C. elegans life span in liquid medium; type: in vivo; conditions: for C. elegans survived compared to control: 20th day
Excerpt: C. elegans is a free-living multicellular organism. Clear age-dependent human like physiological changes at the tissue, cellular, and molecular levels make C. elegans a valuable model for research in the field of aging and life span studies (Ambros, 2006). Accordingly, it was investigated how NMDAR blockers affact the life span of C. elegans. The use of drugs in the C. elegans related studies has been applied in different ways. The drugs were either applied to the LB medium with bacteria OP50, before spreading onto Nematode Growth Medium (NGM) plates (LB medium method), or to the NGM with live (NGM live method) or dead bacteria (NGM dead method), or spotting the drug solution to the surface of plates directly (spot dead method), or growing the worms in liquid medium (liquid growing method) (Ambros, 2006). Liquid growing method achieved the best absorption efficiency in worms. […] Therefore in this invention all the experiements related with the C. elegans were completed in liquid medium. In order to understand the effectiveness of the drug according to the onset time, the memantin was added to the medium on the 1st, 7th and 14th days in a 24-day period and the number of viable worms were determined on the 20nd day.
C. elegans strains used in this study were gift from Dr. Deniz Aksoy, Faculty of Sciency-Trakya University-Turkey. Preparation of liquid culture of C. elegans was prepared according to the Stiernagle, T. Maintenance of C. elegans (Feb. 11, 2006), WormBook, http://www.wormbook.org. Animals were grown on nematode growth medium (NGM) (50 mM NaCl, 2% agar, […], 5 mg/L cholesterol, 1.0 mM CaCl2), 1.0 mM MgSO4, 25 mM potassium phosphate, pH 6.0) seeded with Escherichia coli OP50 at 20° C. using standard methods.
For this purpose, the method described by Sulston, J. & Hodgkin, J. was followed. (See, Methods. in: Wood, W. B. (ed.) The Nematode Caenorhabditis elegans. (1988) Cold Spring Harbor Laboratory, Cold Spring Harbor: 587-606.; Solis, G. M., Petrascheck, M. Measuring Caenorhabditis elegans Life Span in 96 Well Microtiter Plates. 2011, J. Vis. Exp. (49)) Two-3 days old worms with eggs growing in NGM were transferred to 50 ml flask using S-medium. After centrifugation, worms were treated with 20% Alkaline Hypochlorite Solution and the eggs were transferred to the S-medium after washing with S-medium.
To sterilize the animals 300 μL of a 6 mM Fluorodeoxyuridine (FUDR) stock solution was added to 10 ml medium. During the monitoring of their life span, the worms were kept by shaking at a constant speed of 200 rpm. Locomotor activities of the worms were recorded and available.

C. elegans [2] = assay: C. elegans lipid accumulation by Nile Red staining; type: in vivo
Excerpt: In the next study, the effects of NMDAR blocker on lipid accumulation and central body fat and thus the fat metabolism in C. elagans was investigated. As mentioned above Nile red is a lipophilic stain which stain intracellular lipid droplets in cell. Therefore, in the presence of memantine and control C. elegans groups on the 19th day, the amount of fat in the living organisms was investigated by Nile Red staining.

mice = assay: Weight test (forelimb grip) in aged mice; type: in vivo; conditions: mice at 22 months
Excerpt: Another grip test that measures muscle strength more finely is forelimb grip strength test. Many biomarkers related to aging have been identified in human. Importantly, the grip tests performed on humans has been defined as a highly predicitive indicator that can show disabilities, diseases and deaths that may occur due to aging (Iconaru et al., 2018; Sousa-Santos and Amaral, 2017) In this test a mouse is held by the middle base of the tail and lower it to allow it to grasp the weight which is a ball of tangled fine gauge stainless steel wire. This test is carried out by increasing the weight, investigating the weight that the mouse can carry or keeping the weight constant and how long the mouse can carry the weight.
The experimental protocols were approved by the Ethics Committee of Ankara University, Faculty of Medicine, Medical Sciences Experimental Research and Application Center (Date: Dec. 11, 2019 and Decision number: 2019-22-189). Adult (12-mounts-old) C57BL/6 mice (5 for each group) were used. The mice were housed at the Experimental Animal Research Laboratory of Ankara University Faculty of Medicine. […] Tests related to locomotor activities of the mice were recorded and available.
Weight test use to measure muscle strength (Deacon, 2013). […] The experiment was recorded by camera for a maximum of 5 minutes. Total griping time was evaluated.

lipid accumulation = assay: Nile red staining of lipid in mouse tissues; type: in vivo; conditions: mice at 22 months
Excerpt: In the next study, the effects of NMDAR blocker on lipid accumulation in liver, brain, muscle, lung, skin, pancreas, and kidney of mice with the presence of Memantine and control mice groups at 22 months were stained with Nile red and investigated.
Whole frozen tissues were sectioned with a microtome and fixed in 4% paraformaldehyde, Tissues were washed in PBS and the individual staining methods used in accordance with the manufacturer's recommendations. Total pixels from fluorescence in the images were quantified using Adobe Photoshop software CS2 (Adobe Systems), and normalized to a nuclear stain.

[3] = system: human mesenchymal stem cells; assay: Lipid droplet amount in mesenchymal stem cells; type: cell-based; conditions: day 14
Excerpt: Cell were harvested at day 14 for western blot and the protein expression amounts of the differentiation markers cd44, cd73, and cd90 were investigated. […] Another indicator of the stem cell differentiation is the determination of the amounts of lipid droplet in the cell. Fourteen-day cell passage is caused to increase lipid in the cell. It was observed that memantine treatment has prevented the amount of lipid droplet (FIG. 36D).

[4] = humans, 20 mg per day; cited from earlier work
[5] = mice, 30 mg/kg dose; cited from earlier work
hippocampal slices = conditions: 6-10 uM; cited from earlier work
[6] = animals studies; cited from earlier work

CC12CC3CC(C)(C1)CC(N)(C3)C2 [memantine, 3,5-dimethyladamantan-1-amine]
C. elegans survived compared to control (C. elegans [1]; memantin started on day 7 or day 1): ~3 times | C. elegans survived compared to control (C. elegans [1]; memantin started on the 14th day): 67% | worms survived compared to no-treatment (C. elegans [1]; day 21): 4 times | life span of C. elegans (C. elegans [1]; log-rank (Kaplan-Meier)): increase | lipid accumulation in control group compared to treated (C. elegans [2]; 19th day): more than 2 fold | lipid accumulation in control group compared to treated (C. elegans [2]; 20th day): more than 2 fold | forelimb grip: time holding a fixed weight (mice): four times longer | amount of lipid in liver, brain, muscle, lung, and skin (lipid accumulation): less than that of the control group | amount of lipid in pancreas and kidney (lipid accumulation): No clear difference | amount of lipid droplet [3]: prevented | serum levels [4]: 500 to 1000 nM | tolerability [5]: well tolerated | LTP in hippocampal slices (hippocampal slices): do not attenuate | induction of HSP, neuronal vacuolization and necrosis [6]: No induction

Reference: patent publication US20250161238A1, “NMDAR Antagonists Prevent Ageing and Aging-Associated Conditions and Diseases Through Increasing 20S Proteasome Activity” (priority 2022, published 2025)
